Reference: patent US20260209152A1, “Substituted Hydroxystilbene Compounds and Derivatives, Synthesis and Uses Thereof” (Kynan Duke IP, LLC, priority 2019, published 2026)
pEC50, pIC50: −log10 of the molar value. Values joined by “and” are separate entries in the source; they are usually repeats but may differ in a detail not shown here. Equal entries are not always repeated. Where two headings read alike, the source gives them in different places.

What was measured:
[1] = test system: IL-4 secretion from human CD4-positive T-cells stimulated with antiCD2/antiCD3/antiCD28-coated beads; assay: T-cell IL-4 assay (assay number 1297, 1298); format: cell-based; conditions: for Max Eff.: IL-4 (1298): highest effect as percentage of control maximum effect; for Emax: read-out: maximum efficacy, IL-4 secretion
Method: Inhibition of IL-4 and IL-2 secretion from human CD4-positive T-cells stimulated with antiCD2/antiCD3/antiCD28-coated beads. LEO Pharma Open Innovation assay number 1297, 1298, 1299.
The inflammatory skin disease atopic dermatitis is characterized by the T-cell cytokines IL-4, IL-13 and IL-22. In the present assay, human T-cells are stimulated with beads coated with antibodies against CD2, CD3 and CD28 to activate the T-cell receptor.
Then the level of secreted of IL-4 is measured in the culture supernatant using electrochemiluminescence (MSD kits, Meso Scale Discovery), IL-2 is measured by proximity homogenous time-resolved fluorescence (HTRF) and the amount of living cells is measured by addition of resazurin (PrestoBlue®) to allow identifying compounds that inhibit T-cell proliferation or viability.
• Peripheral blood mononuclear cells (PBMC) are isolated from fresh human buffy coats by centrifugation on Lymphoprep® following instructions from Sebmate™ (Stemcell). • The cells are resuspended in 30 ml of PBS+2% Serum and counted. • CD4 positive T-cells are isolated from freshly isolated PBMC using EasySep™ humane CD4+ T-cell Isolation Kit (Catalog #17952) and following the manufacturer's protocol. • Cells are spun down and resuspended in freezing medium (X-vivo 15+10% FBS+5% DMSO) • Cells are frozen in aliquots of 3×10^7 cells/vial matching one 384 plate. Cells are place in Coolcell box and place in −80° C. freezer for one day then transferred to the −150° C. freezer in a prechilled box.
• Prepare assay medium: 500 ml X-Vivo 15+5 ml Glutamax (2 mM final)+5 ml pen/strep (100 U/ml final). • Add 5 μL medium to the wells of a 384 well plate (Greiner cat. No 788986). • CD4+ Cells: Thaw frozen cells from −150° C. freezer in 37° C. bath, and pipette the cells into 10 ml medium. Spin 10 min @170 g. • Resuspend pellet in 3.5 ml per 2.5×10^7 cells and add 10 μL per well to the plate (40000 cells/well) • Test compounds: Prepare compound-containing source plate, i.e. titrations in DMSO to be transferred to the assay plate. • Add 25 nL compounds and controls from the source plate to the assay plate (with cells). • Beads (T Cell Activation/Expansion Kit-human, Miltenyi Biotech, cat. no. 130-091-441): Coat beads with antibodies according to the kit procedure. • Add 10 μL beads to each well except for the negative controls. One bead per cell. Add 10 μL medium to the negative controls. • Incubate plates at 37° C., 5% CO2/95% air for 2 days.
• Remove plates from incubation and equilibrate to room temperature for 30 minutes. • IL-4 concentration in 10 μL supernatant is measured using an MSD IL-4 384-plate kit (Custom made) according to manufacturer protocol. • IL-2 concentrations in the supernatant is measured by an IL-2 HTRF kit, CisBio, cat. No 62HIL02PEH. • Add 4 μL medium to white proxi 384-well plates • Add 1 μL supernatant. • Add 4 μL mHTRF mix (each diluted 1:300 in ⅔ reconstitution buffer and ⅓ assay medium). • Spin the plates for 1 minute at 170 g • Seal and incubate overnight and read fluorescence in a plate reader • The amount of viable cells is measured by PrestoBlue® reagent • Add 15 μL diluted PrestoBlue® reagent (resazurin) corresponding to 2.5 μL Prestoblue/well to the assay plate. • Incubate overnight at 37° C./5% CO2. The fluorescence in the wells is measured (Ex615/Em 535).
IL-4 concentration in the supernatants is measured using electrochemiluminescence (MSD kits, Meso Scale Discovery). IL-2 concentration in the supernatants is measured using homogeneous time-resolved fluorescence resonance (TR-FRET). The assay is quantified by measuring fluorescence at 665 nm (proportional to IL-2 concentration) and 620 nm (control). A ratio 665/620*1000 is calculated.
The capacity of the test compound to inhibit IL-4 and IL-2 release is normalized to the signal in the negative control wells with un-stimulated T-cells.

[2] = test system: Pancreatic MIA PaCa-2; assay: CellTiter Glo cell viability assay; format: cell-based, human
Procedure, shortened: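 MIA PaCa-2 human pancreatic cancer cells were plated in 96-well plates, 1.7*10^3 cells/well in quadruplicate, and compounds were added as serial dilutions to build dose-response curves. Viability was read by CellTiter Glo Luminescence (Promega) on a Varioskan LUX reader. Relative luminescence was plotted against log dose, and IC50 was obtained by nonlinear regression in GraphPad Prism 7.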

[3] = inhibition of IL-4 secretion, human CD4-positive T-cells, read-out: Abs EC50: IL-4 (1298)
[4] = Homo sapiens, MIA PaCa-2, 72 h, 3 Days of treatment, 18 2-fold dilutions 5-0.00003 μM, read-out: Average IC50
[5] = Homo sapiens, MIA PaCa-2, 72 h, Table 4: 3 Days of treatment, 18 2-fold dilutions 5-0.00003 μM, Average (1, 8) or single Exp A-D, read-out: IC50
[6] = Homo sapiens, MIA PaCa-2, 120 h, Day 5 upon drug treatment, 10 dosages 0.0001-20 μM (Compound 8: 18 dosages 0.000038146 to 5 μM), read-out: IC50
[7] = Homo sapiens, MIA PaCa-2, MIA PaCa-2/CRL-1420, 11 dilutions 3-0.00001 μM, Table 6, read-out: IC50
[8] = Homo sapiens, MIA PaCa-2, Table 5A: 11 dilutions 3-0.00001 μM, average of experiments, read-out: IC50 average
[9] = Homo sapiens, MIA PaCa-2, Table 5A: 11 dilutions 3-0.00001 μM, single experiments Exp E-K, read-out: IC50
[10] = Homo sapiens, CD4 positive, read-out: EC50, inhibition of IL-4 secretion
[11] = Table 5A: 11 dilutions 3-0.00001 μM, single experiments Exp E-K, read-out: IC50

| Structure (SMILES) | Max Eff.: IL-4 (1298) [1] [%] | pEC50 [1, 3] | pIC50 [2, 4] | pIC50 ([2]; Homo sapiens, MIA PaCa-2, 72 h, Day 3 upon drug treatment, 10 dosages 0.0001-20 μM, read-out: IC50) | pIC50 [2, 5] | pIC50 [2, 6] | pIC50 [2, 7] | pIC50 [2, 8] | pIC50 [2, 9] | Fold IC50 ([2]; IC50 of 1 [KYN-001] vs 8 [KYN-119], 3 Days) | pIC50 ([2]; Table 5A: 11 dilutions 3-0.00001 μM, average of experiments, read-out: IC50 average) | pEC50 [1, 10] | Emax ([1]; Homo sapiens, CD4 positive) [%] | Fold more potent than 1 [KYN-001] ([2]; MIA PaCa-2 cells) | pIC50 [2, 11] | effect on IL-4 release, in words [1] |
| --- | --- | --- | --- | --- | --- | --- | --- | --- | --- | --- | --- | --- | --- | --- | --- | --- |
| COc1cc(/C=C/c2cc(O)cc(OC)c2CC=C(C)C)ccc1O [Compound 1, (E)-3-(4-hydroxy-3-methoxystyryl)-5-methoxy-4-(3-methylbut-2-en-1-yl)phenol] | 70 | 5.53 | 6.90 | 6.69 | 6.05 | 7.29 | 6.96 | 7.09 | – | – | – | – | – | – | – | – |
| CCOc1cc(O)cc(/C=C/c2ccc(NC(=O)C(=O)O)c(OC)c2)c1CC=C(C)C [Compound 35, (E)-2-((4-(3-Ethoxy-5-hydroxy-2-(3-methylbut-2-en-1-yl)styryl)-2-methoxyphenyl)amino)-2-oxoacetic acid] | 11 | 5.30 | – | – | – | – | – | – | – | – | – | – | – | – | – | – |
| COc1cc(/C=C/c2cc(O)cc(OC)c2CC=C(C)C)ccc1NC(=O)CN [Compound 31, (E)-2-amino-N-(4-(5-hydroxy-3-methoxy-2-(3-methylbut-2-en-1-yl)styryl)-2-methoxyphenyl)acetamide] | 29 | 5.30 | – | – | – | – | – | – | 5.50 | – | – | – | – | – | – | – |
| CCOc1cc(O)cc(/C=C/c2ccc(O)c(OC)c2)c1CC=C(C)C [Compound 8, (E)-3-Ethoxy-5-(4-hydroxy-3-methoxystyryl)-4-(3-methylbut-2-en-1-yl)phenol] | 82 | 6.30 | 7.74 | – | 6.68 | ~9.33 | 7.63 | 7.60 | – | 7.0 | 7.59 | – | – | – | – | – |
| CCOc1cc(O)cc(/C=C/c2ccc(O)c(O)c2)c1CC=C(C)C [Compound 20, (E)-4-(3-Ethoxy-5-hydroxy-2-(3-methylbut-2-en-1-yl)styryl)benzene-1,2-diol] | 54 | 5.30 | – | – | – | – | 7.26 | – | – | – | – | – | – | – | – | – |
| COc1cc(/C=C/c2cc(O)cc(OC)c2CC=C(C)C)ccc1NC=O [Compound 27, (E)-N-(4-(5-hydroxy-3-methoxy-2-(3-methylbut-2-en-1-yl)styryl)-2-methoxyphenyl)formamide] | 79 | 6.29 | – | – | – | – | 7.67 | 7.82 | 7.00 to 8.00 | – | – | 6.29 | 79 | approximately 5 | 7.83 and 7.87 and 7.77 | – |
| CCOc1cc(O)cc(/C=C/c2ccc(NC=O)c(OC)c2)c1CC=C(C)C [Compound 28, (E)-N-(4-(3-Ethoxy-5-hydroxy-2-(3-methylbut-2-en-1-yl)styryl)-2-methoxyphenyl)formamide] | 80 | 6.56 | – | – | – | – | 7.89 | – | > 9.00 | – | – | 6.56 | 80 | – | 9.03 | medium potency effect |
